These results are taken from patent publication US9884849B2, “Fluorinated benzofuranyl-pyrimidine derivatives containing a sulfoximine group” (Bayer Pharma Aktiengesellschaft, priority 2014, dated 2018).

In assay [1] the test system is Caco-2 cells. Nature of the assay: Proliferation assay Caco-2 (Method 3). The settings on record: Caco-2, 4 days, crystal violet, read-out: Inhibition of Caco-2 cell proliferation IC50. The assay is classed as cell-based, human. Here is the method: (§1) Cultivated tumour cells (HeLa, human cervical tumour cells, ATCC CCL-2; NCI-H460, human non-small cell lung carcinoma cells, ATCC HTB-177; A2780, human ovarian carcinoma cells, ECACC #93112519; DU 145, hormone-independent human prostate carcinoma cells, ATCC HTB-81; HeLa-MaTu-ADR, multidrug-resistant human cervical carcinoma cells, EPO-GmbH Berlin; Caco-2, human colorectal carcinoma cells, ATCC HTB-37; B16F10, mouse melanoma cells, ATCC CRL-6475) were plated at a density of 5,000 cells/well (DU145, HeLa-MaTu-ADR), 3,000 cells/well (NCI-H460, HeLa), 2,500 cells/well (A2780), 1,500 cells/well (Caco-2), or 1,000 cells/well (B16F10) in a 96-well multititer plate in 200 μL of their respective growth medium supplemented 10% fetal calf serum. After 24 hours, the cells of one plate (zero-point plate) were stained with crystal violet (see below), while the medium of the other plates was replaced by fresh culture medium (200 μl), to which the test substances were added in various concentrations (0 μM, as well as in the range of 0.001-10 μM; the final concentration of the solvent dimethyl sulfoxide was 0.5%). The cells were incubated for 4 days in the presence of test substances. Cell proliferation was determined by staining the cells with crystal violet: the cells were fixed by adding 20 μl/measuring point of an 11% glutaric aldehyde solution for 15 minutes at room temperature. After three washing cycles of the fixed cells with water, the plates were dried at room temperature. The cells were stained by adding 100 μl/measuring point of a 0.1% crystal violet solution (pH 3.0). After three washing cycles of the stained cells with water, the plates were dried at room temperature. The dye was dissolved by adding 100 μl/measuring point of a 10% acetic acid solution. The extinction was determined by photometry at a wavelength of 595 nm. The change of cell number, in percent, was calculated by normalization of the measured values to the extinction values of the zero-point plate (=0%) and the extinction of the untreated (0 μm) cells (=100%). The IC50 values (inhibitory concentration at 50% of maximal effect) were determined by means of a 4 parameter fit.

Assay [2] concerns the target T1, CDK9/CycT1 (Homo sapiens, UniProt P50750).
T1 construct: Recombinant full-length His-tagged human CDK9 and CycT1; His; purchased Invitrogen PV4131; host or cells: insect cells
In words: CDK9/CycT1 high ATP kinase assay (Method 1b, TR-FRET). The assay is classed as biochemical. The settings on record: 2 mM ATP; for Selectivity high ATP CDK9 over high ATP CDK2: IC50 (high ATP CDK2)/IC50 (high ATP CDK9): Methods 1b. and 2b. As for the experimental part: 1b. CDK9/CycT1 High ATP Kinase Assay
CDK9/CycT1-Inhibitory Activity of Compounds of the Present Invention at a High ATP Concentration after Preincubation of Enzyme and Test Compounds was Quantified Employing the CDK9/CycT1 TR-FRET Assay as Described in the Following Paragraphs.
Recombinant full-length His-tagged human CDK9 and CycT1, expressed in insect cells and purified by Ni-NTA affinity chromatography, were purchase from Invitrogen (Cat. No PV4131). As substrate for the kinase reaction biotinylated peptide biotin-Ttds-YISPLKSPYKISEG (C-terminus in amid form) was used which can be purchased e.g. form the company JERINI peptide technologies (Berlin, Germany). For the assay 50 nl of a 100 fold concentrated solution of the test compound in DMSO was pipetted into a black low volume 384 well microtiter plate (Greiner Bio-One, Frickenhausen, Germany), 2 μl of a solution of CDK9/CycT1 in aqueous assay buffer [50 mM Tris/HCl pH 8.0, 10 mM MgCl2, 1.0 mM dithiothreitol, 0.1 mM sodium ortho-vanadate, 0.01% (v/v) Nonidet-P40 (Sigma)] were added and the mixture was incubated for 15 min at 22° C. to allow pre-binding of the test compounds to the enzyme before the start of the kinase reaction. Then the kinase reaction was started by the addition of 3 μl of a solution of adenosine-tri-phosphate (ATP, 3.3 mM=>final conc. in the 5 μl assay volume is 2 mM) and substrate (1.67 μM=>final conc. in the 5 μl assay volume is 1 μM) in assay buffer and the resulting mixture was incubated for a reaction time of 25 min at 22° C. The concentration of CDK9/CycT1 was adjusted depending of the activity of the enzyme lot and was chosen appropriate to have the assay in the linear range, typical concentrations were in the range of 0.5 μg/mL. The reaction was stopped by the addition of 5 μl of a solution of TR-FRET detection reagents (0.2 μM streptavidine-XL665 [Cisbio Bioassays, Codolet, France] and 1 nM anti-RB(pSer807/pSer811)-antibody from BD Pharmingen [#558389] and 1.2 nM LANCE EU-W1024 labeled anti-mouse IgG antibody [Perkin-Elmer, product no. AD0077]) in an aqueous EDTA-solution (100 mM EDTA, 0.2% (w/v) bovine serum albumin in 100 mM HEPES/NaOH pH 7.0).
The resulting mixture was incubated 1 h at 22° C. to allow the formation of complex between the phosphorylated biotinylated peptide and the detection reagents. Subsequently the amount of phosphorylated substrate was evaluated by measurement of the resonance energy transfer from the Eu-chelate to the streptavidine-XL. Therefore, the fluorescence emissions at 620 nm and 665 nm after excitation at 350 nm was measured in a HTRF reader, e.g. a Rubystar (BMG Labtechnologies, Offenburg, Germany) or a Viewlux (Perkin-Elmer). The ratio of the emissions at 665 nm and at […] was taken as the measure for the amount of phosphorylated substrate. The data were normalised (enzyme reaction without inhibitor=0% inhibition, all other assay components but no enzyme=100% inhibition).

In assay [3] the test system is A2780 cells. In words: Proliferation assay A2780 (Method 3). It is filed as cell-based, human. The settings on record: A2780, 4 days, crystal violet, read-out: Inhibition of A2780 cell proliferation IC50. Here is the method:
as §1

Assay [4] has as its system NCI-H460 cells. Nature of the assay: Proliferation assay NCI-H460 (Method 3). The settings on record: NCI-H460, 4 days, crystal violet, read-out: Inhibition of NCI-H460 cell proliferation IC50. It is filed as cell-based, human. As for the experimental part: as §1

Molecules are shown by their SMILES. Like-named read-outs stand apart in the source and are kept apart here.

T1 sequence (P50750 whole entry): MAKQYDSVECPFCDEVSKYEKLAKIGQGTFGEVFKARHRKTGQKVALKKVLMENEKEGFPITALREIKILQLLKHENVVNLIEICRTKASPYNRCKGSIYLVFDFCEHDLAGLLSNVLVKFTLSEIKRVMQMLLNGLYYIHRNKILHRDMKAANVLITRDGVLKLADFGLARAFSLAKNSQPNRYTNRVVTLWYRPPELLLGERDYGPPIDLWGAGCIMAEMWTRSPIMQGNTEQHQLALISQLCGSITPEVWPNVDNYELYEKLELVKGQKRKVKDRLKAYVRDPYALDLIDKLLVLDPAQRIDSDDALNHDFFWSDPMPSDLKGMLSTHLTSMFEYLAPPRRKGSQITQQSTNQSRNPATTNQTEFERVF
T1 sequence (O60563 whole entry partner): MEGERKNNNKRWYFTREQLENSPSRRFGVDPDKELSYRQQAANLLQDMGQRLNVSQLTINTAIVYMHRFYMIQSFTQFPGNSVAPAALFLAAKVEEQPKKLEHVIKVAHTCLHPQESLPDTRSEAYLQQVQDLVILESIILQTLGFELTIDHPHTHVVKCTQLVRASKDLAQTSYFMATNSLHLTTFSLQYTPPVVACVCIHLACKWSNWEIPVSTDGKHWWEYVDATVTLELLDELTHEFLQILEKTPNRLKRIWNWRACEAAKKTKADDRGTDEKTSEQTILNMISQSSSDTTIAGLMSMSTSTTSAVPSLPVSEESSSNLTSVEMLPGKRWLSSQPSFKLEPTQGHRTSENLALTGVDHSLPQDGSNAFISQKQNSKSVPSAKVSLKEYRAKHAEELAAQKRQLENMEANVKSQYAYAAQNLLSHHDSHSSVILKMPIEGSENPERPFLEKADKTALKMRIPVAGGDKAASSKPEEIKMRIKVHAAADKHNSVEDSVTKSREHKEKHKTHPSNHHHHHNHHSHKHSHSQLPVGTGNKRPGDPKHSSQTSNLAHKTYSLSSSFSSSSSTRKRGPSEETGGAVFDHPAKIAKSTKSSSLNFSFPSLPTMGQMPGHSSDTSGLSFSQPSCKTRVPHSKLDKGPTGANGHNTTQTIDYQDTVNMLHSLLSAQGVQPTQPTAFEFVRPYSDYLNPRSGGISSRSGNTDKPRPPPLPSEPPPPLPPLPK

Consider `Cc1cc(CS(C)(=O)=NC#N)cc(Nc2ncc(F)c(-c3ccc(F)c4ccoc34)n2)c1` (racemic) [Example 13, (rac)-[(3-{[5-Fluoro-4-(4-fluoro-1-benzofuran-7-yl)pyrimidin-2-yl]amino}-5-methylbenzyl)-(methyl)oxido-λ^6-sulfanylidene]cyanamide], for which the IC50 was 40 nM in assay [1] (Homo sapiens, Caco-2, 96 h); 0.88 nM in assay [2]; 34 nM in assay [3] (Homo sapiens, A2780, 96 h); 118 nM in assay [4] (Homo sapiens, NCI-H460, 96 h). In addition, the “Selectivity high ATP CDK9 over high ATP CDK2: IC50 (high ATP CDK2)/IC50 (high ATP CDK9)” value (“Selectivity high ATP CDK9” below) in assay [2] amounted to 1364.
For `CS(=O)(Cc1cccc(Nc2ncc(F)c(-c3ccc(F)c4ccoc34)n2)c1)=NC#N` (single isomer, unassigned) [Example 3, [(3-{[5-Fluoro-4-(4-fluoro-1-benzofuran-7-yl)pyrimidin-2-yl]amino}benzyl)(methyl)oxido-λ^6-sulfanylidene]cyanamide] the same measures were 144 nM, 1 nM, 67 nM, 188 nM and 475.
As to `CS(=O)(Cc1cc(Nc2ncc(F)c(-c3ccc(F)c4ccoc34)n2)cc(S(F)(F)(F)(F)F)c1)=NC#N` (racemic) [Example 17, (rac)-{[3-{[5-fluoro-4-(4-fluoro-1-benzofuran-7-yl)pyrimidin-2-yl]amino}-5-(pentafluoro-λ^6-sulfanyl)benzyl](methyl)oxido-λ^6-sulfanylidene}cyanamide], the IC50 in assay [1] (Homo sapiens, Caco-2, 96 h) is 111 nM; in assay [2] it was 7.4 nM; in assay [3] (Homo sapiens, A2780, 96 h) it was 98 nM; in assay [4] (Homo sapiens, NCI-H460, 96 h) it was 192 nM. Moreover, in assay [2], the “Selectivity high ATP CDK9” value is 197.
For `Cc1cc(CS(C)(=O)=NC#N)cc(Nc2ncc(F)c(-c3ccc(F)c4ccoc34)n2)c1` (single isomer, unassigned) [Example 14, [(3-{[5-Fluoro-4-(4-fluoro-1-benzofuran-7-yl)pyrimidin-2-yl]amino}-5-methylbenzyl)-(methyl)oxido-λ^6-sulfanylidene]cyanamide] the same measures were 61 nM, 2.2 nM, 45 nM, 112 nM and 385.
The corresponding values for `Cc1cc(CS(C)(=N)=O)cc(Nc2ncc(F)c(-c3ccc(F)c4ccoc34)n2)c1` (racemic) [Example 16, (rac)-5-Fluoro-4-(4-fluoro-1-benzofuran-7-yl)-N-{3-methyl-5-[(S-methylsulfonimidoyl)-methyl]phenyl}pyrimidin-2-amine] are 60 nM, 6.4 nM, 35 nM, 120 nM and 77.
For `CS(=N)(=O)Cc1cc(F)cc(Nc2ncc(F)c(-c3ccc(F)c4ccoc34)n2)c1` (single isomer, unassigned) [Example 12, 5-Fluoro-4-(4-fluoro-1-benzofuran-7-yl)-N-{3-fluoro-5-[(S-methylsulfonimidoyl)-methyl]-phenyl}-pyrimidin-2-amine], the IC50 stood at 57 nM in assay [1], 0.99 nM in assay [2], 35 nM in assay [3] and 59 nM in assay [4]. In assay [2], the “Selectivity high ATP CDK9” value is 1263.
For `CS(=N)(=O)Cc1cccc(Nc2ncc(F)c(-c3ccc(F)c4ccoc34)n2)c1` (single isomer, unassigned) [Example 6, 5-Fluoro-4-(4-fluoro-1-benzofuran-7-yl)-N-{3-[(S-methylsulfonimidoyl)-methyl]-phenyl}-pyrimidin-2-amine] the same measures were 112 nM, 3.2 nM, 38 nM, 314 nM and 313.
Turning to `CS(=N)(=O)Cc1cc(F)cc(Nc2ncc(F)c(-c3ccc(F)c4ccoc34)n2)c1` (single isomer, unassigned) [Example 11, 5-Fluoro-4-(4-fluoro-1-benzofuran-7-yl)-N-{3-fluoro-5-[(S-methylsulfonimidoyl)-methyl]-phenyl}-pyrimidin-2-amine], the IC50 was 47 nM in assay [1] (Homo sapiens, Caco-2, 96 h); 3.7 nM in assay [2]; 32 nM in assay [3] (Homo sapiens, A2780, 96 h); 83 nM in assay [4] (Homo sapiens, NCI-H460, 96 h). In assay [2], the “Selectivity high ATP CDK9” value turned out to be 247.
